Common to all, as to format: functional
Test [1] deals with T1, High affinity choline transporter 1 (Homo sapiens, UniProt Q9GZV3).
T1 sequence (Q9GZV3 whole entry): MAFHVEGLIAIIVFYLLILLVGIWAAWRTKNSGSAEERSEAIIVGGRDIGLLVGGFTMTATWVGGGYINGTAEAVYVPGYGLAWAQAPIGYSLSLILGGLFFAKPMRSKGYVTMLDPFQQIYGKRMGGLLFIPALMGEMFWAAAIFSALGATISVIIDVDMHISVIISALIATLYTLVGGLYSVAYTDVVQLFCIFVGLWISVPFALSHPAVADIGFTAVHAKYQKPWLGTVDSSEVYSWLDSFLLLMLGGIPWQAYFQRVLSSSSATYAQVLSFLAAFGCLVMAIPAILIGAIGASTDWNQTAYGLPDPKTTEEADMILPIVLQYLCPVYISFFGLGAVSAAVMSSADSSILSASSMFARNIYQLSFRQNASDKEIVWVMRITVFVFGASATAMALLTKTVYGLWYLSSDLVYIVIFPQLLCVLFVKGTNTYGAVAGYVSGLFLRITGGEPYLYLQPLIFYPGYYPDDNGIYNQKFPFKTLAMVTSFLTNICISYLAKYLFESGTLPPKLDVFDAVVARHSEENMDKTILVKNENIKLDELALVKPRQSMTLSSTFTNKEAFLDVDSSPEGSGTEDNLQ
The experiment in a line: CHT inhibitors, dose response, cell-based, 5-point CRC, membrane potential dye (AID 504840).

Test [2] has as its target T1, High affinity choline transporter 1. The experiment in a line: CHT inhibitors, dose response, cell-based, 10-point CRC, membrane potential dye (AID 588401).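 Also: membrane potential dye fluorescence of choline-evoked depolarization via CHT.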
Test [3] is described as follows: SAR analysis of small molecule activators of Apaf-1 using a LZ-Caspase-9/Caspase-3 Fluorescent Selectivity assay - Set 2. The following applies: read-out: EC50_Mean.
The target in test [4] is T2, Apoptotic protease-activating factor 1 (Homo sapiens, UniProt O14727).
T2 sequence (O14727 whole entry): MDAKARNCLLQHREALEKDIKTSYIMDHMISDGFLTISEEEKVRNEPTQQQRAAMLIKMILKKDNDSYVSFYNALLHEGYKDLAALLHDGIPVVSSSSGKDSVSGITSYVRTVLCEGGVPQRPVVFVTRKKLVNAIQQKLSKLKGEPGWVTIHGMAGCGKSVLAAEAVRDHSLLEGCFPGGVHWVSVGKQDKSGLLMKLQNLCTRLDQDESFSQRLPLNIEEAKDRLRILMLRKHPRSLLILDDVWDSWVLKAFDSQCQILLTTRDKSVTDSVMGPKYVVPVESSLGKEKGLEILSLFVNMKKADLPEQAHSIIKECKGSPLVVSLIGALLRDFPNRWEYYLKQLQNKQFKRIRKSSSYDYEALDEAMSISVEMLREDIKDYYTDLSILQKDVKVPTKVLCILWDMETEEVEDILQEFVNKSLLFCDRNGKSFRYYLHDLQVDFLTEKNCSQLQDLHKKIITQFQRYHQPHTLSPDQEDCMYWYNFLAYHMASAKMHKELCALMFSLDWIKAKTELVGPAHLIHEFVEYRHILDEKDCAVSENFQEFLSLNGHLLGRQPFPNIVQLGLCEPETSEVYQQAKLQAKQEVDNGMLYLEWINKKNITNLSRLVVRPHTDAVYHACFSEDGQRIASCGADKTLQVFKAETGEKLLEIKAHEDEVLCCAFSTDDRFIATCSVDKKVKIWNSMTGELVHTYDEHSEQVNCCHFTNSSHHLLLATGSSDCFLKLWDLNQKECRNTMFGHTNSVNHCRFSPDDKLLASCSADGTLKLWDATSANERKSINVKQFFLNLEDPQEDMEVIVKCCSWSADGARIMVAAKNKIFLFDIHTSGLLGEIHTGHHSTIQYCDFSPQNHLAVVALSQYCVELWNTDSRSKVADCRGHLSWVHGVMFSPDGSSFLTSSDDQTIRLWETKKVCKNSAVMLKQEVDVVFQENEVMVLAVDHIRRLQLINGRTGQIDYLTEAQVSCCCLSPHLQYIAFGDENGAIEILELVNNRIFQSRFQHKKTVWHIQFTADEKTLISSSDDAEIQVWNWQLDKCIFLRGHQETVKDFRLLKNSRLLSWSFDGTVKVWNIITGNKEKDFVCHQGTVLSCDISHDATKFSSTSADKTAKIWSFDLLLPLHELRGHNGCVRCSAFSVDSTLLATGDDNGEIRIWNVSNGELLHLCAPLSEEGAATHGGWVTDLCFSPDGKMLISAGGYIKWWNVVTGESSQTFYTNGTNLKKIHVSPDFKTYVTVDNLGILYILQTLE
Put plainly: SAR analysis of small molecule Activators of Apaf-1 in a Fluorescent assay - set 2. The following applies: read-out: EC50_Mean.

Experimental findings from ChEMBL document CHEMBL1201862, “PubChem BioAssay data set” (2004) are described below.

The term IC50 denotes the concentration needed to halve the response being measured.

Calls of active or inactive are those of the source.

As to `CCOC(=O)c1cc(C(=O)NC(C)c2ccccc2)c(C)nc1O` (centres undefined), the IC50 in test [1] was 1.77 µM (active); in test [2], 0.447 µM (active).
In the case of `CC(Cn1cnc2ccccc21)C(=O)O` (centres undefined), the results for the EC50 in test [3] and in test [4] were > 100 µM (inactive) and 83.2 µM (active), respectively.
